# Patent US12252644B2, “Polarizer and image display device” (FUJIFILM Corporation, priority 2019, dated 2025)
# Test: Measurement of maximum absorption wavelength
# Assay type: physicochemical
# Settings: solution in a good solvent, spectrophotometer UV-3150, 250 to 800 nm
# Procedure: The maximum absorption wavelength (nm) of the dichroic material in the present specification is acquired from an ultraviolet visible spectrum in a wavelength range of 380 to 800 nm measured by a spectrophotometer using a solution prepared by dissolving the dichroic material in a good solvent.
# The maximum absorption wavelengths of the dichroic materials used in the examples and the comparative examples were measured. The maximum absorption wavelength was acquired from the ultraviolet visible light spectrum in a wavelength range of 250 to 800 nm which was measured by a spectrophotometer (product name, “UV-3150”, manufactured by Shimadzu Corporation) using a solution in which the dichroic material was dissolved in a good solvent.
First dichroic material maximum absorption wavelength,Second dichroic material maximum absorption wavelength,Third dichroic material maximum absorption wavelength,Compound
591 nm,–,–,C=CC(=O)OCCN(CC)c1ccc(N=Nc2nc3sc(N=Nc4ccc(OCCCCCCCCCOC(C)=O)cc4)cc3s2)cc1 [Example C-1]
–,466 nm,–,CCC(=O)OCCN(C)c1ccc(N=Nc2ccc(N=Nc3ccc(OCCCCCCCCCOC(C)=O)cc3)cc2)cc1 [Example M-1]
–,471 nm,–,CCC(=O)OCCCCCCCCCOc1ccc(N=Nc2ccc(N=Nc3ccc(N(CC)CCOC(=O)CC)cc3)cc2)cc1 [Example M-2]
–,471 nm,–,C=CC(=O)OCCN(CC)c1ccc(N=Nc2ccc(N=Nc3ccc(OCCCCCCCCCOC(=O)CC)cc3)cc2)cc1 [Example M-3]
–,460 nm,–,CCC(=O)OCCCCCCCCCOc1ccc(N=Nc2ccc(N=Nc3ccc(N(CC)CCC#N)cc3)cc2)c(Cl)c1 [Example M-4]
–,484 nm,–,CCN(CC)c1ccc(N=Nc2ccc(N=Nc3ccc(OCCCCCCCCCOC(C)=O)cc3)cc2)cc1 [Example M-5]
–,465 nm,–,CC(=O)OCCCCCCCCCOc1ccc(N=Nc2ccc(N=Nc3ccc(N(C)CCOC(C)=O)cc3)cc2)cc1 [Example M-6]
–,–,418 nm,C=CC(=O)OCCCCOc1ccc(N=Nc2ccc(N=Nc3ccc(N=Nc4ccc(OCCCCOC(C)=O)cc4)cc3)c(C)c2)cc1 [Example Y-1]
–,–,418 nm,CCOC(=O)CCCCOc1ccc(N=Nc2ccc(N=Nc3ccc(N=Nc4ccc(OCCCCC(=O)OCC)cc4)cc3C)cc2)cc1 [Example Y-2]
